Source: patent US20050101595A1, “N-containing cycloalkyl-substituted amino-thiazole derivatives and pharmaceutical compositions for inhibiting cell proliferation and methods for their use” (PFIZER INC., priority 2003, published 2005)
Structures can show the parent of a compound that is named as a salt. Where two headings read alike, the source gives them in different places.

Assays:
[1] = tested on: HCT-116 cell line; experiment: Inhibition of cell growth, tetrazolium salt (MTT) assay; assay type: cell-based; details: for IC50: Homo sapiens, HCT-116, 120 h, MTT, three to five days, read-out: HCT-116 IC50
Procedure, shortened: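 Growth inhibition is scored relative to cells receiving only 0.5% (v/v) DMSO. Plated cells rest 4 h, then take compound for three to five days at 37° C; MTT reduction to formazan is read at 540 nm.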

[2] = molecular target: CDK2/Cyclin A (Homo sapiens, UniProt P24941); experiment: Inhibition of CDK2/Cyclin A Retinoblastoma Kinase Activity; assay type: biochemical; details: for Ki: apparent Ki, CDK2/proteolyzed cyclin A, Rb fragment substrate, 25 μM ATP
Procedure, shortened: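 Human CDK2, baculovirus/insect-cell expressed, complexed with proteolyzed cyclin A (10 nM or 19 nM CDK2) phosphorylates an Rb fragment with 25 μM [32P/33P]ATP at pH 7.4, 30° C, for 60 or 75 minutes under initial-rate conditions. Filter-captured radioactivity is read by phosphorimager; apparent Ki from competitive-inhibition fits.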

[3] = molecular target: human CDK4 and genetically truncated (1-264) cyclin D3 (Homo sapiens, UniProt P11802); experiment: Inhibition of CDK4/Cyclin D Retinoblastoma Kinase Activity; assay type: biochemical; details: for Ki: apparent Ki, CDK4/truncated cyclin D3, Rb fragment substrate, 25 μM ATP
Method: Cyclin-dependent kinase activity was measured by quantifying the enzyme-catalyzed, time-dependent incorporation of radioactive phosphate from [^32P]ATP or [^33P]ATP into a protein substrate. Unless noted otherwise, assays were performed in 96-well plates in a total volume of 50 μL, in the presence of 10 mM HEPES (N-[2-hydroxyethyl]piperazine-N′-[2-ethanesulfonic acid]) (pH 7.4), 10 mM MgCl2, 25 μM adenosine triphosphate (ATP), 1 mg/mL ovalbumin, 5 μg/mL leupeptin, 1 mM dithiothreitol, 10 mM β-glycerophosphate, 0.1 mM sodium vanadate, 1 mM sodium fluoride, 2.5 mM ethylene glycol-bis(β-aminoethyl ether)-N,N,N′N′-tetraacetic acid (EGTA), 2% (v/v) dimethylsulfoxide, and 0.03-0.4 μCi [^32/33P]ATP per reaction. Reactions were initiated with enzyme, incubated at 30° C., and terminated after 20 minutes by the addition of ethylenediaminetetraacetic acid (EDTA) to 250 mM. The phosphorylated substrate was then captured on a nitrocellulose or phosphocellulose membrane using a 96-well filtration manifold, and unincorporated radioactivity was removed by repeated washing with 0.85% phosphoric acid. Radioactivity was quantified by exposing the dried membranes to a phosphorimager.
Inhibition was measured relative to control wells that contained all reaction components including 2% (v/v) DMSO but no compound, after subtraction of background radioactivity measured in the absence of enzyme. Apparent Ki values of discrete compounds were measured by assaying enzyme activity in the presence of different inhibitor compound concentrations and subtracting the background radioactivity measured in the absence of enzyme. The kinetic parameters (kcat, Km for ATP) were measured for each enzyme under the usual assay conditions by determining the dependence of initial rates on ATP concentration. Inhibition data were fit to an equation for competitive inhibition using Kaleidagraph (Synergy Software), or were fit to an equation for competitive tight-binding inhibition using the software KineTic (BioKin, Ltd.).
Inhibition of CDK4/Cyclin D Retinoblastoma Kinase Activity:
A complex of human CDK4 and genetically truncated (1-264) cyclin D3 was purified using traditional biochemical chromatographic techniques from insect cells that had been co-infected with the corresponding baculovirus expression vectors (see e.g., Meijer and Kim, “Chemical Inhibitors of Cyclin-Dependent Kinases,” Methods in Enzymol,. vol. 283 (1997), pp. 113-128.). The enzyme complex (5 nM) was assayed with 0.3-0.5 μg of purified recombinant retinoblastoma protein fragment (Rb) as a substrate. The engineered Rb fragment (residues 386-928 of the native retinoblastoma protein; 62.3 kDa) contains the majority of the phosphorylation sites found in the native 106-kDa protein, as well as a tag of six histidine residues for ease of purification. Phosphorylated Rb substrate was captured by microfiltration on a nitrocellulose membrane and quantified using a phosphorimager as described above. For measurement of tight-binding inhibitors, the assay duration was extended to 60 minutes, during which the time-dependence of product formation was linear and initial rate conditions were met.

Chain of human CDK4 and genetically truncated (1-264) cyclin D3 (P11802 whole entry, the tested form may be a part): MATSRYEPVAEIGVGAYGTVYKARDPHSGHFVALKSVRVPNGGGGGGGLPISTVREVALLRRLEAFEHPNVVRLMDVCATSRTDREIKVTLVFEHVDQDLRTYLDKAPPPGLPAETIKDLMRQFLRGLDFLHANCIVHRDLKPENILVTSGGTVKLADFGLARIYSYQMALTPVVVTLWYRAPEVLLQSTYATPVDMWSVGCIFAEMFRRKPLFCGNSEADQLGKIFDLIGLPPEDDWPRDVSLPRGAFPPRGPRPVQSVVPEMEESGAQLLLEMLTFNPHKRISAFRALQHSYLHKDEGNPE
Chain of human CDK4 and genetically truncated (1-264) cyclin D3 (P30281 1-264 partner): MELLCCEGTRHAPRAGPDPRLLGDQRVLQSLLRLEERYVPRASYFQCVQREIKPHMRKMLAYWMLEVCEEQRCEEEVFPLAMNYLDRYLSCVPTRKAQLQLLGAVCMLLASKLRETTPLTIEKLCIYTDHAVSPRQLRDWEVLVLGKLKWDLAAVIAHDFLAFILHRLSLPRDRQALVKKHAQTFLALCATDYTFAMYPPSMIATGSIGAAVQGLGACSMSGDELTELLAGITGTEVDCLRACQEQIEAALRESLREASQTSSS

Row | SMILES | Ki [2] [nM] | Ki [3] [nM] | other results
1 | COCC(=O)N1CCC(Nc2nc(N)c(C(=O)c3c(F)cccc3F)s2)CC1 [Example Q42] | – | – | HCT-116 % Inhibition at 0.1 μM ([1]; 0.1 μM compound, HCT-116, Table 4): 3%; HCT-116 % Inhibition at 0.25 μM ([1]; 0.25 μM compound, HCT-116, Table 4): 30%; CDK2 % Inhibition at 0.03 μM ([2]; 0.03 μM compound, Table 4): −4%; CDK4 % Inhibition at 0.03 μM ([3]; 0.03 μM compound, Table 4): 20%
2 | CC1(C)CC(Nc2nc(N)c(C(=O)c3c(F)cccc3F)s2)CC(C)(C)N1 [Example A2, [4-Amino-2-(2,2,6,6-tetramethyl-piperidin-4-ylamino)-thiazol-5-yl]-(2,6-difluoro-phenyl)-methanone] | > 5000 | > 2000 | –
3 | Nc1nc(NC2CCNCC2)sc1C(=O)c1c(F)cccc1F [Example A6, [4-Amino-2-(piperidin-4-ylamino)-thiazol-5-yl]-(2,6-difluoro-phenyl)-methanone] | 1000 | 830 | –
4 | Nc1nc(NC2CCN(S(=O)(=O)CCN3CCC(c4ccccc4)C3)CC2)sc1C(=O)c1c(F)cccc1F (stereo not shown) [Example N5, (4-Amino-2-{1-[2-(3-phenyl-pyrrolidin-1-yl)-ethanesulfonyl]-piperidin-4-ylamino}-thiazol-5-yl)-(2,6-difluoro-phenyl)-methanone Hydrochloride Salt.] | 1.8 | 1.5 | –
5 | C[C@@H](NC(=O)N1CCC(Nc2nc(N)c(C(=O)c3c(F)cccc3F)s2)CC1)c1ccccc1 [Example B3, 4-[4-Amino-5-(2,6-difluoro-benzoyl)-thiazol-2-ylamino]-piperidine-1-carboxylic Acid (1R-Phenyl-ethyl)-amide] | 190 | 420 | –
6 | Nc1nc(NC2CCN(C(=O)c3ccc(Br)cc3)C2)sc1C(=O)c1c(F)cccc1F (stereo not shown) [Example C18, {4-Amino-2-[1-(4-bromo-benzoyl)-pyrrolidin-3-ylamino]-thiazol-5-yl}-(2,6-difluoro-phenyl)-methanone] | 77 | 210 | –
7 | COc1ccc(OC)c(NC(=O)N2CCC(Nc3nc(N)c(C(=O)c4c(F)cccc4F)s3)CC2)c1 [Example B4, 4-[4-Amino-5-(2,6-difluoro-benzoyl)-thiazol-2-ylamino]-piperidine-1-carboxylic Acid (2,5-Dimethoxy-phenyl)-amide] | 66 | 62 | –
8 | CC(C)NC(=O)N1CCC(Nc2nc(N)c(C(=O)c3c(F)cccc3F)s2)CC1 [Example B1, 4-[4-Amino-5-(2,6-difluoro-benzoyl)-thiazol-2-ylamino]-piperidine-1-carboxylic Acid Isopropylamide] | 410 | 380 | –
9 | CCOC(=O)N1CCC(Nc2nc(N)c(C(=O)c3c(F)cccc3F)s2)CC1 [Example A1, 4-[4-Amino-5-(2,6-difluoro-benzoyl)-thiazol-2-ylamino]-piperidine-1-carboxylic Acid Ethyl Ester] | 190 | 82 | –

The next lines start with results.

Row | Ki [2] [nM] | Ki [3] [nM] | SMILES | other results
10 | 0.46 | 1.1 | Nc1nc(NC2CCN(S(=O)(=O)c3cncc(Cl)n3)CC2)sc1C(=O)c1c(F)cccc1F [Example F49, {4-Amino-2-[1-(6-chloro-pyrazine-2-sulfonyl)-piperidin-4-ylamino]-thiazol-5-yl}-(2,6-difluoro-phenyl)-methanone] | –
11 | 99 | 360 | N#Cc1ccc(S(=O)(=O)N2CCC(Nc3nc(N)c(C(=O)c4c(F)cccc4F)s3)C2)cc1 (stereo not shown) [Example F38, 4-{3-[4-Amino-5-(2,6-difluoro-benzoyl)-thiazol-2-ylamino]-pyrrolidine-1-sulfonyl}-benzonitrile] | –
12 | 510 | 150 | Cc1ccc(C(=O)/C=C/C(=O)N2CCC(Nc3nc(N)c(C(=O)c4c(F)cccc4F)s3)CC2)cc1 [Example D9, 1-{4-[4-Amino-5-(2,6-difluoro-benzoyl)-thiazol-2-ylamino]-piperidin-1-yl}-4-p-tolyl-but-2(E)-ene-1,4-dione] | –
13 | 4.4 | 4 | Nc1nc(NC2CCN(S(=O)(=O)CCCn3ccnn3)CC2)sc1C(=O)c1c(F)cccc1F [Example K3, 1-{4-Amino-2-[1-(3-triazol-1-yl-propane-1-sulfonyl)-piperidin-4-ylamino]-thiazol-5-yl}-1-(2,6-difluoro-phenyl)-methanone.] | –
14 | 14 | 22 | CN(C)S(=O)(=O)N1CCC(Nc2nc(N)c(C(=O)c3c(F)cccc3F)s2)CC1 [Example E1, 4-[4-Amino-5-(2,6-difluoro-benzoyl)-thiazol-2-ylamino]-piperidine-1-sulfonic acid dimethylamide] | –
15 | – | 140 | CC(=O)/C=C/C(=O)N1CCC(Nc2nc(N)c(C(=O)c3c(F)cccc3F)s2)CC1 [Example D16, 1-{4-[4-Amino-5-(2,6-difluoro-benzoyl)-thiazol-2-ylamino]-piperidin-1-yl}-pent-2(E)-ene-1,4-dione] | IC50 ([1]; first HCT-116 column (c4)): 82 nM; IC50 ([1]; second HCT-116 column (c5)): 150 nM
16 | 750 | 1600 | CS(=O)(=O)N1CC[C@H](Nc2nc(N)c(C(=O)c3c(F)cccc3F)s2)C1 [Example F41, [4-3S-Amino-2-(1-methanesulfonyl-pyrrolidin-3-ylamino)-thiazol-5-yl]-(2,6-difluoro-phenyl)-methanone] | –
17 | 0.31 | 0.45 | Nc1nc(NC2CCN(S(=O)(=O)c3ccc(-n4ccnc4)cc3)CC2)sc1C(=O)c1c(F)cccc1F [Example G30, 1-{4-Amino-2-[1-(4-imidazol-1-yl-benzenesulfonyl)-piperidin-4-ylamino]-thiazol-5-yl}-1-(2,6-difluoro-phenyl)-methanone] | –
18 | 1000 | 400 | Nc1nc(NC2CCN(S(=O)(=O)c3ccc([N+](=O)[O-])cn3)CC2)sc1C(=O)c1c(F)cccc1F [Example F29, 1-{4-Amino-2-[1-(5-nitro-pyridine-2-sulfonyl)-piperidin-4-ylamino]-thiazol-5-yl}-1-(2,6-difluoro-phenyl)-methanone] | –
19 | 1.7 | 2.5 | Nc1nc(NC2CCN(S(=O)(=O)c3ccc(Cl)nc3)CC2)sc1C(=O)c1c(F)cccc1F [Example F21, 1-(4-Amino-2-[1-(6-chloro-pyridine-3-sulfonyl)-piperidin-4-ylamino]-thiazol-5-yl}-1-(2,6-difluoro-phenyl)-methanone] | –
20 | 54 | 18 | COc1ccccc1/C=C\C(=O)N1CCC(Nc2nc(N)c(C(=O)c3c(F)cccc3F)s2)CC1 [Example D18, 1-{4-[4-Amino-5-(2,6-difluoro-benzoyl)-thiazol-2-ylamino]-piperidin-1-yl}3(Z)-(2-methoxy-phenyl)-propenone] | –
21 | 520 | 330 | CS(=O)(=O)N1CCC(Nc2nc(N)c(C(=O)c3c(F)cccc3F)s2)C1 (stereo not shown) [Example F39, [4-Amino-2-(1-methanesulfonyl-pyrrolidin-3-ylamino)-thiazol-5-yl]-(2,6-difluoro-phenyl)-methanone] | –
22 | 58 | 380 | N#Cc1ccc(S(=O)(=O)N2CC[C@H](Nc3nc(N)c(C(=O)c4c(F)cccc4F)s3)C2)cc1 [Example F40, 4-{3S-[4-Amino-5-(2,6-difluoro-benzoyl)-thiazol-2-ylamino]-pyrrolidine-1-sulfonyl}-benzonitrile] | –
23 | 105 | 79 | COc1ccc(Cl)cc1C(=O)N1CCC(Nc2nc(N)c(C(=O)c3c(F)cccc3F)s2)CC1 [Example D19, {4-Amino-2-[1-(5-chloro-2-methoxy-benzoyl)-piperidin-4-ylamino]-thiazol-5-yl}-(2,6-difluoro-phenyl)-methanone] | –
